According to patent US7994219B2, “Approach to anti-microbial host defense with molecular shields with lipoxin compounds” (The Brigham and Women's Hospital, Inc., priority 2001, dated 2011):

Columns and labels:
[1] = system: BPI; experiment: Semi-quantitative RT-PCR of BPI transcript in KB cells; type: cell-based, human
[2] = system: Salmonella typhimurium; experiment: Bacterial killing assay: adherent Caco2 cells with Salmonella typhimurium (CFU); type: cell-based; conditions: Caco2 pre-exposure to 1 μM ATLa, 24 hr; killing over 60 min
Procedure: Salmonella typhimurium (strain 14028 from American Type Culture Collection, Rockville, Md.) were cultured and grown in Luria broth as previously described (22). In subsets of experiments, Enterococcus faecalis (strain PCI 1326 from American Type Culture Collection, Rockville, Md.) were cultured as previously described (23). Caco2 epithelial cells were grown to confluence of 60 mm petri dishes and exposed to indicated experimental conditions. Cells were washed once with HBSS, and washed bacteria were added to epithelial monolayers at a ratio of 50 bacteria per adherent epithelial cell. Incubations were allowed to proceed for 90 minutes or as indicated on a rotating platform. Parallel samples omitting epithelial cells were used as controls. Following incubation, supernatants were collected and epithelial cells were hypotonically lysed with 1 ml ice cold water. Bacteria were pelleted, dilutions of both pellets and supernatants were plated, incubated overnight at 37° C., and colony counts were performed. In subsets of experiments, anti-BPI antisera (1:300 in HBSS) or anti-BPI antisera pre-adsorbed with rBPI (1:300 in HBSS), as indicated, were added 30 minutes prior to incubation with bacteria. Data are presented as the mean±S.E.M. CFU.

[3] = system: BPI; experiment: Confocal microscopy of surface BPI on non-permeabilized Caco2 cells; type: cell-based, human; conditions: 1 μM for 24 hr
Procedure: OKF6 or Caco2 cells were grown to confluence on acid washed 12 mm glass coverslips. Monolayers were exposed to indicated experimental conditions, washed once in phosphate buffered saline, and fixed for 10 minutes at room temperature in 1% paraformaldehyde in cacodylate buffer (0.1M sodium cacodylate; pH 7.4, 0.72% sucrose). After washing twice with PBS, the cells were incubated for 1 hour with rabbit polyclonal BPI antisera (1:300 dilution) or control sera (equivalent dilution depleted of specific antibody through 3 consecutive adsorptions with sepharose beads covalently linked to rBPI via cyanogens bromide coupling, kit from Pierce Chemical Co., Rockford, Ill.). After washing, the monolayers were incubated with goat anti-rabbit Oregon Green (1 μg/ml, Molecular Probes, Eugene, Oreg.). Cells were imaged on a BioRad MRC-600 confocal fluorescence microscope.

[4] = system: BPI; experiment: RT-PCR of BPI transcript in OKF6, T84 and Caco2 epithelial cells; type: cell-based, human
[5] = system: bacteria; experiment: Direct incubation of ATLa or anti-BPI with bacteria and colony counts; type: cell-based; conditions: direct incubation with bacteria, no epithelial cells; data not shown
[6] = system: BPI; experiment: Quantitative genechip microarray transcriptional profile of KB epithelial cells exposed to ATLa; type: cell-based, human; conditions: 1 μM ATLa
[7] = system: BPI; experiment: Immunoprecipitation of biotinylated plasma membrane protein and avidin blot for surface BPI in T84 cells; type: cell-based, human; conditions: 1 μM ATLa, at 36 h
Procedure: Epithelial cells were grown to confluence on 45 cm^2 permeable supports, and exposed to ATLa or vehicle (0.01% EtOH), as indicated. Cells were washed extensively in HBSS, cooled to 4° C., and extracellular proteins were biotinylated (1 mM NHS-biotin (Pierce Chemical Co., Rockford, Ill.) in HBSS) as previously described (18). Plasma membranes were isolated using nitrogen cavitation (200 psi, 8 min., 4° C.) as previously described (18). Recombinant human BPI (100 ng/ml, was directly biotinylated and excess biotin was removed by multiple washes on a 5 kD cut-off membrane filter (Amicon, Beverly Mass.). Fractions were pre-cleared with 50 μl pre-equilibrated protein-G sepharose (Pharmacia, Uppsala Sweden). Immunoprecipitation of BPI was performed with goat polyclonal anti-BPI followed by addition of 50 μl pre-equilibrated protein-G sepharose and overnight incubation. Washed immunoprecipitates were boiled in non-reducing sample buffer (2.5% SDS, 0.38 M Tris pH 6.8, 20% glycerol, and 0.1% bromophenol blue), resolved by non-reducing SDS-PAGE (18% polyacrylamide gel), transferred to nitrocellulose, and blocked overnight in blocking buffer. Biotinylated proteins were labeled with streptavidin-peroxidase (Pierce Chemical Co., Rockford, Ill.) and visualized by enhanced chemiluminescence (ECL; Amersham, Arlington Heights, Ill.).

How did the “induction of BPI at the mRNA level” value ([1]; epithelial exposure to similar concentrations as ATLa, data not shown) turn out when `CCCCCC/C=C/C=C/C=C/C=C/[C@@H](O)[C@@H](O)CCCC(=O)O` [15-deoxy-LXA4, reference compound] was run?
The value was “no induction”.

Which results are given for `O=C(O)CCC[C@H](O)[C@H](O)/C=C/C=C/C=C\C=C\[C@@H](O)COc1ccc(F)cc1` [ATLa, 15-epi-16-(para-fluoro)-phenoxy-LXA4]?
increase in killing of S. typhimurium [2]: ~60%; surface-bound BPI expression [3]: increased expression; maximal increase of BPI transcript relative to β-actin by densitometry ([1]; KB cells, 1 μM, 8 h, compared to vehicle control): 4.3 fold; EC50 ([1]; KB cells, 8 hr, 28 cycles of PCR, approximate, read-out: EC50 of BPI transcript induction (dose response)): ~50 nM; BPI induction relative to β-actin ([4]; OKF6, T84 and Caco2 cells, 1 μM, 26 cycles of PCR): prominent pattern of time-dependent BPI induction; direct bactericidal activity or non-specific agglutination [5]: not explained by bactericidal activity or non-specific agglutination; BPI mRNA increase over control (microarray) ([6]; 4 hrs exposure): 3.2 fold; BPI mRNA increase over control (microarray) ([6]; 8 hrs exposure): 2.9 fold; maximal increase of ~55 kDa surface protein consistent with BPI by densitometry [7]: 12.5 fold

With pertussis toxin [reference compound] as the compound, how does the “decrease in BPI induction by ATLa” value ([4]; Caco2 pre-exposure to pertussis toxin 1 μM, 30 min, ATLa 1 μM, 18 h) read?
Its value is 65%.
